Data published in patent US9522884B2, “Compositions and methods for the treatment of metabolic disorders” (CELLIXBIO PRIVATE LIMITED, priority 2012, dated 2016).

What was measured:
STZ-diabetic rats = test: Prevention of arterial stiffening in diabetes: STZ-diabetic rats treated 8 weeks via drinking water; format: in vivo, Male Wistar rats; settings: STZ-diabetic rats (DM), 1 g·L-1 in drinking water, n = 12, mean ± SEM
Experimental: (§1) Diabetes was induced in rats by a single tail vein injection with 55 mg·kg-1 steptozotocin (STZ). After induction of hyperglycaemia, animals were treated for 8 weeks with pyridoxamine (1 g·L-1 in drinking water) and Formula-I (1-2) (1 g·L-1 in drinking water) were compared with the age-matched untreated diabetic controls. Pulse wave reflection along the vasculature was derived using the impulse response function of the filtered aortic input impedance spectra.
(§2) Male Wistar rats at 2 months were randomly divided into six groups (n=12 in each group) as follows: (i) normal controls (NC); (ii) STZ-diabetic rats (DM); (iii) NC treated with PM (NC+PM); (iv) NC treated with Formula-I (1-2) (NC+Formula-I (1-2)); (v) DM treated with PM (DM+PM); and (vi) DM treated with Formula-I (1-2) (DM+Formula-I (1-2)). Diabetes was induced in animals by a single tail vein injection with 55 mg·kg-1 STZ in 0.1 M citrate buffer (pH 4.5). After confirmation of the development of hyperglycaemia (2 days later) by blood glucose determination using a sure step Test Strip, rats were randomly allocated into a vehicle-treated diabetic group, and a treatment group receiving PM in drinking water of 1 g·L-1 and Formula-I (1-2) in drinking water of 1 g·L-1. Animals were studied 8 weeks after exposure to PM to determine its effects on the pulsatile nature of blood flows in the diabetic arteries.
(§3) Effects of Diabetes and Pyridoxamine and Formula-I (1-2) on Blood Glucose Level, Body Weight, Left Ventricular Weight and Aortic Pressure Profile in Male Wistar Rats: […]

[1] = tested on: normal controls (NC) rats; test: Normal control rats treated 8 weeks via drinking water (same study); format: in vivo, Male Wistar rats; settings: 1 g·L-1 in drinking water, n = 12, mean ± SEM
Experimental: as §1, §2, §3

Row | Structure (SMILES) | BW (body weight) (STZ-diabetic rats) [g] | Glucose (STZ-diabetic rats) [mg/mL] | LVW (left ventricular weight) (STZ-diabetic rats) [g] | LVW/BW (STZ-diabetic rats) [mg/g] | Pd (diastolic aortic pressure) (STZ-diabetic rats) [mmHg] | Pm (mean aortic pressure) (STZ-diabetic rats) [mmHg] | Ps (systolic aortic pressure) (STZ-diabetic rats) [mmHg] | BW (body weight) [1] [g] | Glucose [1] [mg/mL] | LVW (left ventricular weight) [1] [g] | LVW/BW [1] [mg/g] | Pd (diastolic aortic pressure) [1] [mmHg] | Pm (mean aortic pressure) [1] [mmHg] | Ps (systolic aortic pressure) [1] [mmHg]
1 | CC/C=C\C/C=C\C/C=C\C/C=C\C/C=C\CCCC(=O)OC(C)OC(=O)NCc1c(CO)cnc(C)c1O (stereo not shown) [Formula 1(1-2)] | 299.8 ± 14.9 | 4.128 ± 0.189 | 0.599 ± 0.0349 | 1.989 ± 0.034 | 72.5 ± 1.98 | 88.9 ± 1.96 | 102.7 ± 1.098 | 418.0 ± 13.8 | 1.051 ± 0.014 | 0.789 ± 0.016 | 1.69 ± 0.04 | 76.7 ± 4.10 | 91.4 ± 3.7 | 103.1 ± 2.5
2 | Cc1ncc(CO)c(CN)c1O [PM, pyridoxamine] | 296.3 ± 16.4 | 4.305 ± 0.209 | 0.609 ± 0.029 | 2.07 ± 0.04 | 73.2 ± 2.1 | 89.9 ± 2.0 | 103.3 ± 2.0 | 420.0 ± 11.5 | 1.004 ± 0.032 | 0.722 ± 0.023 | 1.72 ± 0.03 | 77.6 ± 3.0 | 92.5 ± 2.7 | 106.0 ± 2.5
